# Laboratory results as given in US20110182860A1 (priority 2009, published 2011).
# Marks after values point to notes of the source that are not given here.
# Test system: sheath blight caused by Rhizoctonia solani
# Assay: Rice sheath blight field experiment (Lujiang county of Anhui province)
# Type: in vivo
# Source text: Rice the most important crop in China, and the sheath blight caused by Rhizoctonia solani is one of the most serious diseases in rice.
smiles,measurement,setting,value
"OCC1=C[C@@H](N[C@H]2C[C@H](CO)[C@@H](O[C@H]3O[C@@H](CO)[C@H](O)[C@@H](O)[C@@H]3O)[C@H](O)[C@H]2O)[C@H](O)[C@@H](O)[C@@H]1O [Jinggangmycin (20%), Jinggangmycin]",Control efficacy,,69.81%
same,"Disease severity, Means ± S.D",,26.51 ± 0.91^b %
same,"Disease severity, I",replicate I,27.43%
same,"Disease severity, II",replicate II,26.52%
same,"Disease severity, III",replicate III,25.60%
